{
  "source": "patent US20050222135A1",
  "about": "“Active substance combination” (priority 2004, published 2005)",
  "system": "male Swiss albino mice",
  "conditions": "30 minute period after 2 mg/kg naloxone i.v.; Morphine 5 mg/kg/day s.c. over 4 days, Cizolirtine (as citrate) 40 mg/kg/day i.p.",
  "description": "Pharmacodyn. 1971, 190, pages 213-218 in male Swiss albino mice (weight 20-25 g, Harlan Iberica, S. Feliu de Codinas, Barcelona, Spain).\nWithdrawal symptoms are then induced by the intravenous administration of a suitable opioid antagonist in a dose known to those skilled in the art, for example, 2 mg/kg naloxone in case of morphine, 30 minutes after the administration of the final dose of the opioid is completed.\nAfter the administration of 2 mg/kg naloxone 30 minutes after the administration of the final dose of the active substance combination has been completed, the mice are closely watched for withdrawal symptoms, namely jumps and shakes (of the wet dog shake type), which are then counted and registered.",
  "data": [
    {"smiles": "CN1CC[C@]23c4c5ccc(O)c4O[C@H]2[C@@H](O)C=C[C@H]3[C@H]1C5", "note": "[Morphine]", "values": [
      {"measurement": "Number of jumps", "value": 6.6}
    ]}
  ]
}
